Among the data in the Kinase Knowledgebase extract (Sharma et al. 2016) are IC50 values, retold here.

The target in this assay is PIK3CG (human) (UniProt P48736). Nature of the assay: Assessment of PIK3CG Kinase Activity.
Chain of PIK3CG (human) (P48736 whole entry, looked up): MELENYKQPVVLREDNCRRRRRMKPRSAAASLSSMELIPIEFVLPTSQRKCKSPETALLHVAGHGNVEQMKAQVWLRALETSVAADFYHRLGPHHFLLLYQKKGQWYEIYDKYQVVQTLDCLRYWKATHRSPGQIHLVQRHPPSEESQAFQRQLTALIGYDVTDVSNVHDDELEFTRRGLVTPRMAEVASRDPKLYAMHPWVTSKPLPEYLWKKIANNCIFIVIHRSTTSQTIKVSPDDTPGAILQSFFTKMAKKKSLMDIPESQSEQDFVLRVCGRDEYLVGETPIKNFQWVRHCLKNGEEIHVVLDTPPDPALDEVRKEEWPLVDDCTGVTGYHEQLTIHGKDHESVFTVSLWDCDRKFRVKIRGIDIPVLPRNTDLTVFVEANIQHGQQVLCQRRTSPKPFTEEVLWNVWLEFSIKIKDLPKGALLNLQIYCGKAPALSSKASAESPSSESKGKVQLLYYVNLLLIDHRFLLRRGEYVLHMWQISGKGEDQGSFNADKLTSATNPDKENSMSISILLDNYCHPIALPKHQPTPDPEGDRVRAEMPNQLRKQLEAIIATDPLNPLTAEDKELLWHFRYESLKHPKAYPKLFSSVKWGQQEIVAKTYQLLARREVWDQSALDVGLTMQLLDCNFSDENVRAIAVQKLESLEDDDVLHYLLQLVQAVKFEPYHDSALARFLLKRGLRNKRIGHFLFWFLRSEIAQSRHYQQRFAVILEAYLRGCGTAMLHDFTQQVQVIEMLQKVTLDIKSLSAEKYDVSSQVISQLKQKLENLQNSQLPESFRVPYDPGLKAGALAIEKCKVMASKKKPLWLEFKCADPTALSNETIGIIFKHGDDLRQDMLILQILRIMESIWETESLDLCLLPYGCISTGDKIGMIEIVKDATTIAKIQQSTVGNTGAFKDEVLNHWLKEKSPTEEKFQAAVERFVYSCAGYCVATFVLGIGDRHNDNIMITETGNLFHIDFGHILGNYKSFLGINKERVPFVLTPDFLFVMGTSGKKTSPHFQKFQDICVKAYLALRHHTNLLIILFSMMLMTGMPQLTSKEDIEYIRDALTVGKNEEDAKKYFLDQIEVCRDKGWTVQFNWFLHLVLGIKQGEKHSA

Consider `O=C(NCCc1cn[nH]c1)Nc1nc2c(s1)-c1c(c(-c3cccnc3)nn1-c1ccccc1Cl)CC2`, for which the IC50 is less than 800 nM.

With `CC(C)(C)OC(=O)CCNC(=O)Nc1nc2c(s1)-c1c(c(-c3cncnc3)nn1-c1ccccc1Cl)CC2`, the IC50 is less than 800 nM.

For the compound `COc1cc(CNC(=O)Nc2nc3c(s2)-c2c(c(-c4cncnc4)nn2-c2ccccc2Cl)CC3)cc(OC)c1`, the half-maximal inhibitory concentration (IC50) is less than 800 nM.

`O=C(NCc1cc(CN2CCOCC2)ccn1)Nc1nc2c(s1)-c1c(c(-c3cncnc3)nn1-c1ccccc1Cl)CC2` yielded an IC50 of less than 800 nM.

Compound `CC(C)c1noc(CCNC(=O)Nc2nc3c(s2)-c2c(c(-c4cccnc4)nn2-c2ccccc2Cl)CC3)n1` displayed an IC50 of less than 800 nM.

`O=C(NC[C@H]1CCNC1)Nc1nc2c(s1)-c1c(c(-c3cncnc3)nn1-c1ccccc1Cl)CC2` registered an IC50 of less than 800 nM.

Regarding `CCc1csc(CCNC(=O)Nc2nc3c(s2)-c2c(c(-c4cccnc4)nn2C2CCN(C4CCCC4)CC2)CC3)n1`, the IC50 was less than 800 nM.

Compound `CC(=O)Nc1cccc(CNC(=O)Nc2nc3c(s2)-c2c(c(-c4cccnc4)nn2C2CCN(C)CC2)CC3)c1` returned an IC50 of less than 800 nM.

On to `CCc1cnc(CCNC(=O)Nc2nc3c(s2)-c2c(c(-c4cccnc4)nn2C2CCN(C)CC2)CC3)o1`, for which the IC50 is less than 800 nM.

Regarding `O=C(Nc1nc2c(s1)-c1c(c(-c3cccnc3)nn1-c1ccccc1Cl)CC2)NC1CC1`, the IC50 is less than 800 nM.

`CCN(CC)C(=O)N1CCC[C@@H]1CNC(=O)Nc1nc2c(s1)-c1c(c(-c3cncnc3)nn1-c1ccccc1Cl)CC2` yielded an IC50 of less than 800 nM.

`CN1CCN(Cc2ccc(NC(=O)Nc3nc4c(s3)-c3c(c(-c5cncnc5)nn3-c3ccccc3F)CC4)cc2)CC1` gave an IC50 of less than 800 nM.

`CC(=O)N(C)c1cccc(CNC(=O)Nc2nc3c(s2)-c2c(c(-c4cncnc4)nn2-c2ccccc2Cl)CC3)c1` yielded an IC50 of less than 800 nM.

`O=C(NCCN1CCOCC1)Nc1nc2c(s1)-c1c(c(-c3cccnc3)nn1-c1ccccc1Cl)CC2` yielded an IC50 of less than 800 nM.

For `O=C(NCCCN1CCNC1=O)Nc1nc2c(s1)-c1c(c(-c3cccnc3)nn1-c1ccccc1Cl)CC2`, the IC50 is less than 800 nM.

The compound `CC(C)(C)OC(=O)Nc1cccc(CNC(=O)Nc2nc3c(s2)-c2c(c(-c4cncnc4)nn2-c2ccccc2Cl)CC3)c1` had an IC50 of less than 800 nM.

With `CN(C)C(=O)CNC(=O)Nc1nc2c(s1)-c1c(c(C3CC3)nn1-c1ccccc1Cl)CC2`, the IC50 was less than 800 nM.

Compound `NC(=O)Nc1nc2c(s1)-c1c(c(-c3cccnc3)nn1-c1ccc(S(N)(=O)=O)cc1Cl)CC2` registered an IC50 of less than 800 nM.

For the compound `CC(=O)Nc1cccc(CNC(=O)Nc2nc3c(s2)-c2c(c(-c4cccnc4)nn2-c2ccccc2Cl)CC3)c1`, the IC50 is less than 800 nM.

Regarding `CC(C)(C)OC(=O)N1CCCC(CNC(=O)Nc2nc3c(s2)-c2c(c(-c4cccnc4)nn2-c2ccccc2Cl)CC3)C1` (configuration not stated), the IC50 was less than 800 nM.

For the compound `CN(C)c1cccc(CNC(=O)Nc2nc3c(s2)-c2c(c(C4CC4)nn2-c2ccccc2Cl)CC3)c1`, the IC50 is less than 800 nM.

The compound `O=C(NCc1ccccc1N1CCCCC1)Nc1nc2c(s1)-c1c(c(-c3cccnc3)nn1-c1ccccc1Cl)CC2` displayed an IC50 of less than 800 nM.

Take `CN1CCC(n2nc(-c3cccnc3)c3c2-c2sc(NC(=O)NCc4cccc(N(C)C)c4)nc2CC3)CC1`: the IC50 was less than 800 nM.

Regarding `O=C(Nc1nc2c(s1)-c1c(c(-c3cccnc3)nn1-c1ccccc1Cl)CC2)NC1CCC(N2CCNC2=O)CC1` (configuration not stated), the IC50 was less than 800 nM.

Take `CN[C@@H](C)C(=O)N1CCC[C@@H]1CNC(=O)Nc1nc2c(s1)-c1c(c(-c3cncnc3)nn1-c1ccccc1Cl)CC2`: the IC50 was less than 800 nM.

`NS(=O)(=O)c1ccc(-n2nc(-c3cccnc3)c3c2-c2sc(NC(=O)NCc4cccc(N5CCNC5=O)c4)nc2CC3)c(Cl)c1` yielded a 50% inhibitory concentration (IC50) of less than 800 nM.

For the compound `CCc1noc(CCNC(=O)Nc2nc3c(s2)-c2c(c(-c4cncnc4)nn2-c2ccccc2Cl)CC3)n1`, the IC50 was less than 800 nM.

With `CC(C)(C)OC(=O)N1CCN(c2cccc(NC(=O)Nc3nc4c(s3)-c3c(c(-c5cncnc5)nn3-c3ccccc3F)CC4)c2)CC1`, the IC50 was less than 800 nM.

Compound `CN1CCN(C(=O)N2CCC[C@@H]2CNC(=O)Nc2nc3c(s2)-c2c(c(-c4cncnc4)nn2-c2ccccc2Cl)CC3)CC1` returned an IC50 of less than 800 nM.

Compound `CN(C)S(=O)(=O)c1ccccc1CNC(=O)Nc1nc2c(s1)-c1c(c(-c3ccccc3)nn1-c1ccccc1Cl)CC2` came in with an IC50 of less than 800 nM.

On to `O=C(NC[C@@H]1CCCN1)Nc1nc2c(s1)-c1c(c(-c3cncnc3)nn1-c1ccccc1F)CC2`, for which the IC50 was less than 800 nM.

In the case of `CC(C)(C)OC(=O)CCNC(=O)Nc1nc2c(s1)-c1c(c(C3CC3)nn1-c1ccccc1Cl)CC2`, the half-inhibitory concentration (IC50) is less than 800 nM.

`O=C(NC[C@H]1CCNC1)Nc1nc2c(s1)-c1c(c(-c3ccccc3)nn1-c1cccc(Cl)c1)CC2`: the IC50 was less than 800 nM.

Take `O=C(NCCNS(=O)(=O)C1CC1)Nc1nc2c(s1)-c1c(c(-c3ccccc3)nn1-c1ccccc1Cl)CC2`: the IC50 was less than 800 nM.

`CN(C)C(=O)N1CC[C@H](CNC(=O)Nc2nc3c(s2)-c2c(c(-c4ccccc4)nn2-c2cccc(Cl)c2)CC3)C1` yielded an IC50 of less than 800 nM.

`CC(C)(C)OC(=O)NCc1ccccc1NC(=O)Nc1nc2c(s1)-c1c(c(-c3cccnc3)nn1-c1ccccc1Cl)CC2` showed an IC50 of less than 800 nM.

On to `O=C(NCc1ccc2c(c1)OCO2)Nc1nc2c(s1)-c1c(c(-c3cncnc3)nn1-c1ccccc1Cl)CC2`, for which the IC50 is less than 800 nM.

The compound `O=C(NCc1cccc(N2CCNC2=O)c1)Nc1nc2c(s1)-c1c(c(-c3cccnc3)nn1C1CCN(C3CCCC3)CC1)CC2` gave an IC50 of less than 800 nM.

The compound `CCc1cccc(CNC(=O)Nc2nc3c(s2)-c2c(c(C4CC4)nn2-c2ccccc2Cl)CC3)c1` returned an IC50 of less than 800 nM.

The compound `CN(C)C(=O)[C@@H]1CCCC[C@H]1NC(=O)Nc1nc2c(s1)-c1c(c(-c3ccccc3)nn1-c1ccccc1Cl)CC2` came in with an IC50 of less than 800 nM.

`CCc1cnc(CCNC(=O)Nc2nc3c(s2)-c2c(c(Nc4ccccn4)nn2-c2ccccc2)CC3)o1`: the IC50 was less than 800 nM.

`CCN1CCC(n2nc(-c3cccnc3)c3c2-c2sc(NC(=O)NCc4cccc(N5CCNC5=O)c4)nc2CC3)CC1` came in with an IC50 of less than 800 nM.

For `CN(C)C(=O)CCNC(=O)Nc1nc2c(s1)-c1c(c(C3CC3)nn1-c1ccccc1Cl)CC2`, the IC50 is less than 800 nM.

Compound `O=C(NCCc1ccc2c(c1)OCCO2)Nc1nc2c(s1)-c1c(c(-c3cncnc3)nn1-c1ccccc1Cl)CC2` showed a concentration for half-maximal inhibition (IC50) of less than 800 nM.

As for `O=C(NCc1cccc(-c2ccccc2)c1)Nc1nc2c(s1)-c1c(c(-c3cncnc3)nn1-c1ccccc1Cl)CC2`, the IC50 is less than 800 nM.

As for `CCN1CCC[C@@H]1CNC(=O)Nc1nc2c(s1)-c1c(c(-c3cccnc3)nn1-c1ccccc1Cl)CC2`, the IC50 was less than 800 nM.

Regarding `O=C(NCc1cccc(N2CCNC2=O)c1)Nc1nc2c(s1)-c1c(c(-c3cncnc3)nn1-c1ccccc1Cl)CC2`, the IC50 is less than 800 nM.

The compound `C[C@H](NC(=O)Nc1nc2c(s1)-c1c(c(-c3ccccc3)nn1-c1ccccc1Cl)CC2)C(=O)N1CCN(C)CC1` came in with an IC50 of less than 800 nM.

Regarding `O=C(NCC1CCCCN1)Nc1nc2c(s1)-c1c(c(-c3cncnc3)nn1-c1ccccc1Cl)CC2` (configuration not stated), the IC50 is less than 800 nM.

In turn, `CC(C)c1cccc(CNC(=O)Nc2nc3c(s2)-c2c(c(-c4cccnc4)nn2-c2ccccc2Cl)CC3)c1` came in with an IC50 of less than 800 nM.

`CC(C)(C)OC(=O)N1CCCC(CNC(=O)Nc2nc3c(s2)-c2c(c(-c4cncnc4)nn2-c2ccccc2Cl)CC3)C1` (configuration not stated) yielded an IC50 of less than 800 nM.

`CN1CCN(CCCNC(=O)Nc2nc3c(s2)-c2c(c(-c4cncnc4)nn2-c2ccccc2F)CC3)CC1`: the IC50 was less than 800 nM.
